Among the data in US11759462B2, “Spirocyclic compounds as tryptophan hydroxylase inhibitors” (priority 2013, dated 2023) are IC50 values, retold here.

For this test, the target named is T1, Recombinant human TPH1 (MBP tagged) (Homo sapiens, UniProt P17752).
T1 construct: cloning full length human TPH1 cDNA in to a bacterial pMAL-c5E expression vector; made in house; host or cells: E. coli BL21 (DE3)
T1 sequence (P17752 1-444): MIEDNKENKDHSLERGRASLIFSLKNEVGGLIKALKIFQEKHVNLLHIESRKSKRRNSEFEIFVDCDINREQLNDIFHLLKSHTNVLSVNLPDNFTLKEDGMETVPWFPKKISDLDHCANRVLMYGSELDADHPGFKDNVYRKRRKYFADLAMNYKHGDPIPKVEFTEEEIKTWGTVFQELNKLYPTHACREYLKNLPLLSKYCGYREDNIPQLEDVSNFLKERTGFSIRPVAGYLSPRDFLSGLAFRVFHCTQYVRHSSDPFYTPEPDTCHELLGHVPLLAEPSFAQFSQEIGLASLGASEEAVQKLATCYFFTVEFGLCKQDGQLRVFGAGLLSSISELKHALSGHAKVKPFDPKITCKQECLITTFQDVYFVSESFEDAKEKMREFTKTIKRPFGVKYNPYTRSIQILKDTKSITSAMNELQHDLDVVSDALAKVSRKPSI
Kind of test: TPH1 in vitro inhibition assay (kinetic fluorescence). The test is classed as biochemical. A digest of the protocol: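 Final mix: 15 nM MBP-TPH1, 30 μM Trp, 36 μM 6-methyltetrahydropterin, 25 μM ferrous ammonium sulfate, 50 mM MES pH 7.1, 1% DMSO, room temperature.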

The mark [1] stands for this setting: read-out: TPH1 Range (TPH1 inhibition IC50).

Where two headings read alike, the source gives them in different places.

The term IC50 denotes the midpoint of a concentration-inhibition curve.

In the case of `Nc1nc(O[C@H](c2ccc(-c3ccc4[nH]ncc4c3)cc2)C(F)(F)F)cc(N2CCC3(CC2)CN[C@H](C(=O)O)C3)n1` [Example 55w, (S)-8-(6-((R)-1-(4-(1H-indazol-5-yl)phenyl)-2,2,2-trifluoroethoxy)-2-aminopyrimidin-4-yl)-2,8-diazaspiro[4.5]decane-3-carboxylic acid], the IC50 (TPH1 Range (TPH1 inhibition IC50)) was less than 0.05 µM.

With `Cc1nn(C)c2ccc(-c3ccc([C@@H](Oc4cc(N5CCC6(CC5)CN[C@H](C(=O)O)C6)nc(N)n4)C(F)(F)F)cc3)cc12` [Example 55x, (S)-8-(2-amino-6-((R)-1-(4-(1,3-dimethyl-1H-indazol-5-yl)phenyl)-2,2,2-trifluoroethoxy)pyrimidin-4-yl)-2,8-diazaspiro[4.5]decane-3-carboxylic acid], under setting [1], the IC50 fell in the range of 0.05 to 0.3 µM.

In the case of `Cc1cn(C)c2ccc(-c3ccc([C@@H](Oc4cc(N5CCC6(CC5)CN[C@H](C(=O)O)C6)nc(N)n4)C(F)(F)F)cc3)cc12` [Example 55y, (S)-8-(2-amino-6-((R)-1-(4-(1,3-dimethyl-1H-indol-5-yl)phenyl)-2,2,2-trifluoroethoxy)pyrimidin-4-yl)-2,8-diazaspiro[4.5]decane-3-carboxylic acid], the IC50 under setting [1] lay within 0.05 to 0.3 µM.

As to `COc1cc(-c2ccc([C@@H](Oc3cc(N4CCC5(CC4)CN[C@H](C(=O)O)C5)nc(N)n3)C(F)(F)F)cc2)cc(C(F)(F)F)c1` [Example 55z, (S)-8-(2-amino-6-((R)-2,2,2-trifluoro-1-(3′-methoxy-5′-(trifluoromethyl)-[1,1′-biphenyl]-4-yl)ethoxy)pyrimidin-4-yl)-2,8-diazaspiro[4.5]decane-3-carboxylic acid], under setting [1], the IC50 lay in the range of 0.05 to 0.3 µM.

`Nc1nc(O[C@H](c2ccc(-c3ccc4c(c3)NCCN4)cc2)C(F)(F)F)cc(N2CCC3(CC2)CN[C@H](C(=O)O)C3)n1` [Example 56, (S)-8-(2-amino-6-((R)-2,2,2-trifluoro-1-(4-(1,2,3,4-tetrahydroquinoxalin-6-yl)phenyl)ethoxy)pyrimidin-4-yl)-2,8-diazaspiro[4.5]decane-3-carboxylic acid]: the IC50 under setting [1] was in the range of 0.05 to 0.3 µM.

Consider `Nc1nc(O[C@H](c2ccc3c(c2)CNCN3)C(F)(F)F)cc(N2CCC3(CC2)CN[C@H](C(=O)O)C3)n1` [Example 58, (S)-8-(2-amino-6-((R)-2,2,2-trifluoro-1-(1,2,3,4-tetrahydroquinazolin-6-yl)ethoxy)pyrimidin-4-yl)-2,8-diazaspiro[4.5]decane-3-carboxylic acid], for which, under setting [1], the IC50 was in the range of 0.05 to 0.3 µM.

Regarding `Nc1nc(O[C@H](c2ccc(Br)cc2)C(F)(F)F)cc(N2CCC3(CC2)CN[C@H](C(=O)O)C3)n1` [Example 59, (S)-8-(2-amino-6-((R)-1-(4-bromophenyl)-2,2,2-trifluoroethoxy)pyrimidin-4-yl)-2,8-diazaspiro[4.5]decane-3-carboxylic acid], under setting [1], the IC50 fell in the range of 0.3 to 3 µM.

On to `Nc1nc(O[C@H](c2ccc3ccccc3c2)C(F)(F)F)cc(N2CCC3(CC2)CN[C@H](C(=O)O)C3)n1` [Example 59b, (S)-8-(2-amino-6-((R)-2,2,2-trifluoro-1-(naphthalen-2-yl)ethoxy)pyrimidin-4-yl)-2,8-diazaspiro[4.5]decane-3-carboxylic acid], for which, under setting [1], the IC50 was in the range of 0.3 to 3 µM.

Consider `Cc1cc(-c2ccc3ncc(F)cc3c2)ccc1[C@@H](Oc1cc(N2CCC3(CC2)CN[C@H](C(=O)O)C3)nc(N)n1)C(F)(F)F` [Example 59c, (S)-8-(2-amino-6-((R)-2,2,2-trifluoro-1-(4-(3-fluoroquinolin-6-yl)-2-methylphenyl)ethoxy)pyrimidin-4-yl)-2,8-diazaspiro[4.5]decane-3-carboxylic acid], for which the IC50 under setting [1] fell in the range of 0.05 to 0.3 µM.

`CCc1cc(-c2ccc3ncc(F)cc3c2)ccc1[C@@H](Oc1cc(N2CCC3(CC2)CN[C@H](C(=O)O)C3)nc(N)n1)C(F)(F)F` [Example 59d, (S)-8-(2-amino-6-((R)-1-(2-ethyl-4-(3-fluoroquinolin-6-yl)phenyl)-2,2,2-trifluoroethoxy)pyrimidin-4-yl)-2,8-diazaspiro[4.5]decane-3-carboxylic acid]: under setting [1], the IC50 lay within 0.05 to 0.3 µM.

Turning to `CS(=O)(=O)c1cccc(-c2cc(Cl)ccc2COc2cc(N3CCC4(CC3)CN[C@H](C(=O)O)C4)nc(N)n2)c1` [Example 62, (S)-8-(2-amino-6-((5-chloro-3′-(methylsulfonyl)-[1,1′-biphenyl]-2-yl)methoxy)pyrimidin-4-yl)-2,8-diazaspiro[4.5]decane-3-carboxylic acid], the IC50 under setting [1] is 0.05 to 0.3 µM.

For the molecule “(S)-8-(2-Amino-6-((4-(3-methyl-H-indazol-6-yl)phenoxy)methyl)pyrimidin-4-yl)-2,8-diazaspiro[4.5]decane-3-carboxylic acid [Example 61]”, under setting [1], the IC50 is 0.05 to 0.3 µM.

As to “(S)-8-(2-amino-6-((R)-1-(3,4-dihydroquinazolin-6-yl)-2,2,2-trifluoroethoxy)pyrimidin-4-yl)-2,8-diazaspiro[4.5]decane-3-carboxylic acid [Example 57]”, under setting [1], the IC50 was 0.05 to 0.3 µM.

With “(S)-8-(2-amino-6-((R)-1-(4-bromo-2-(3-methyl-H-pyrazol-1-yl)phenyl)-2,2,2-trifluoroethoxy)pyrimidin-4-yl)-2,8-diazaspiro[4.5]decane-3-carboxylic acid [Example 10o]”, the IC50 under setting [1] was less than 0.05 µM.

With “(S)-8-(2-amino-6-((R)-1-(5-chloro-3′-isopropyl-[1,1′- biphenyl]-2-yl)-2,2,2-trifluoroethoxy)pyrimidin-4- yl)-2,8-diazaspiro[4.5]decane-3-carboxylic acid [Example 34ce]”, the IC50 under setting [1] fell in the range of 0.05 to 0.3 µM.

For the molecule “(S)-8-(2-amino-6-((R)-2,2,2-trifluoro-1-(3-(3- methyl-1H-pyrazol-1-yl)-2′,3′,4′,5′-tetrahydro- [1,1′-biphenyl]-4-yl)ethoxy)pyrimidin-4-yl)- 2,8-diazaspiro[4.5]decane-3-carboxylic acid [Example 1v]”, the half-inhibitory concentration (IC50) under setting [1] is less than 0.05 µM.

As for “(S)-8-(2-amino-6-((R)-2,2,2-trifluoro-1-(3′,4,5′- trifluoro-[1,1′-biphenyl]-4-yl)ethoxy)pyrimidin-4- yl)-2,8-diazaspiro[4.5]decane-3-carboxylic acid [Example 55co]”, the IC50 under setting [1] is 0.05 to 0.3 µM.

For “(S)-8-(6-((R)-1-(4-(1H-indol-6-yl)-2-(3-methyl- 1H-pyrazol-1-yl)phenyl)-2,2,2-trifluoroethoxy)- 2-aminopyrimidin-4-yl)-2,8- diazaspiro[4.5]decane-3-carboxylic acid [Example 1aa]”, the IC50 under setting [1] is less than 0.05 µM.
